Laboratory results reported in PubChem BioAssay (NCI).
Values joined by “and” are separate entries in the source; they are usually repeats but may differ in a detail not shown here. Equal values may be shown once.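 Briefly, cells in 96-well plates were exposed to five compound concentrations for 48 h, and endpoints were estimated by linear interpolation. GI50: concentration for 50% inhibition of growth. TGI: concentration producing complete growth inhibition.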

Columns and labels:
Assay in all cases: NCI anticancer screen, dose series, 48 h
SK-MEL-5 melanoma = tested on: SK-MEL-5 melanoma
786-0 renal = tested on: 786-0 renal
TK-10 renal = tested on: TK-10 renal
M14 melanoma = tested on: M14 melanoma
OVCAR-5 ovarian = tested on: OVCAR-5 ovarian
UO-31 renal = tested on: UO-31 renal
MDA-MB-231 breast = tested on: MDA-MB-231 breast
U251 CNS = tested on: U251 CNS
OVCAR-8 ovarian = tested on: OVCAR-8 ovarian
UACC-62 melanoma = tested on: UACC-62 melanoma

Row | SMILES | TGI (SK-MEL-5 melanoma) [µM] | TGI (786-0 renal) [µM] | TGI (TK-10 renal) | TGI (M14 melanoma) | TGI (OVCAR-5 ovarian) [µM] | TGI (UO-31 renal) | TGI (MDA-MB-231 breast) [µM] | TGI (U251 CNS) | TGI (OVCAR-8 ovarian) | TGI (UACC-62 melanoma) [µM] | GI50 (SK-MEL-5 melanoma) [nM] | GI50 (786-0 renal) | GI50 (U251 CNS) | GI50 (TK-10 renal) [nM] | GI50 (M14 melanoma) | GI50 (OVCAR-5 ovarian) [nM] | GI50 (UO-31 renal) | GI50 (UACC-62 melanoma) | GI50 (OVCAR-8 ovarian)
1 | CN(COC(=O)C(C)(C)C)c1nc(N(C)COC(=O)C(C)(C)C)nc(N(C)COC(=O)C(C)(C)C)n1 | > 100 | > 100 | > 100 µM | 47.6 µM | > 100 | > 100 µM | 68.9 | – | – | – | – | – | – | – | – | – | – | – | –
2 | CC(=O)CC(=O)Nc1ccc(OS(N)(=O)=O)cc1 | > 100 | > 100 | > 100 µM | > 100 µM | > 100 | > 100 µM | – | > 100 µM | > 100 µM | > 100 | – | – | – | – | – | – | – | – | –
3 | NNC(=S)N/N=C(\c1nc2ccc(Cl)cc2[nH]c1=O)C(O)c1cccc([N+](=O)[O-])c1 (stereo not drawn) | > 100 | > 62.5 | > 100 µM | > 88 µM | > 100 | > 100 µM | – | > 100 µM | > 100 µM | > 100 | – | – | – | – | – | – | – | – | –
4 | CN1C=C(C(N)=O)Cc2ccsc21 | > 100 | > 100 | – | > 100 µM | > 100 | > 100 µM | – | > 100 µM | > 100 µM | > 100 | – | – | – | – | – | – | – | – | –
5 | CC[C@@]1(O)C(=O)OCc2c1cc1n(c2=O)Cc2cc3c(N)c(OC)ccc3nc2-1 | 0.234 | 0.0738 | > 50 µM | 0.339 µM | 0.842 | 0.25 µM | – | 0.201 µM | – | 0.0285 | 73.9 | < 0.0157 µM | < 0.01 µM | 2260 | 40.3 nM | 54.3 | 0.0547 µM | < 0.01 µM | –
6 | N/N=C1\C(=O)N(c2ccc(Cl)c(Cl)c2)C(=O)C1C(=O)Nc1ccc(Cl)c(Cl)c1 (stereo not drawn) | 69.6 | > 100 | > 100 µM | > 100 µM | > 100 | 84 µM | – | > 100 µM | > 100 µM | > 100 | – | – | – | – | – | – | – | – | –
7 | O=[N+]([O-])C(=C1c2ccccc2-c2ccccc21)[N+](=O)[O-] | – | > 100 | > 100 µM | > 100 µM | > 100 | > 100 µM | – | > 100 µM | > 100 µM | > 100 | – | – | – | – | – | – | – | – | –
8 | CCCCCCCCCCCCNC(=S)OCCCC | > 100 | > 100 | > 100 µM | > 100 µM | > 100 | > 100 µM | – | > 100 µM | > 100 µM | > 100 | – | – | – | – | – | – | – | – | –
9 | O=C1CC2=CCCC2O1 (stereo not drawn) | > 100 | > 100 | > 100 µM | > 100 µM | – | > 100 µM | – | > 100 µM | > 100 µM | > 100 | – | – | – | – | – | – | – | – | –
10 | NC(=O)c1c(NC(=O)c2ccc(C(F)(F)F)cc2Cl)sc2c1CCC(=O)C2 | 2.08 | 15.6 | 4.07 µM | 1.89 µM | 2.33 | 0.809 µM | – | 1.75 µM | 12.2 µM | 1.21 | 684 | 0.475 µM | 0.27 µM | 423 | 355 nM | 468 | 0.237 µM | 0.274 µM | 0.456 µM
11 | COc1cc(Br)c(C=Nc2cccc3ccc(OS(=O)(=O)c4ccc([N+](=O)[O-])cc4)cc23)cc1OC | > 100 | > 100 | – | – | > 100 | > 100 µM | – | > 100 µM | > 100 µM | > 100 | – | – | – | – | – | – | – | – | –
12 | COc1ccc(-c2cc(-c3ccco3)c(C#N)c(=O)n2C2OC(COC(C)=O)C(OC(C)=O)C(OC(C)=O)C2OC(C)=O)cc1 (stereo not drawn) | > 100 | > 100 | > 100 µM and 78.4 µM | > 100 µM and 52.5 µM | > 100 | > 100 µM and 51.7 µM | – | > 100 µM and 34.7 µM | > 100 µM and 40.4 µM | > 100 | – | > 100 µM and 29.3 µM | > 100 µM and 16.1 µM | – | > 100000 nM and 23200 nM | – | 40.1 µM and 16.5 µM | > 100 µM and 17.2 µM | > 100 µM and 10.9 µM
13 | CC(C)CC1CC2C(=O)N(c3ccccc3)C(=O)C2c2[nH]c3ccccc3c21 (stereo not drawn) | > 100 | > 100 | > 40.1 µM | > 100 µM | > 100 | 79.9 µM | – | > 65 µM | 51.6 µM | > 31.6 | – | – | – | – | – | – | – | – | –
14 | CC1(C)CCOC(Sc2ccccc2)C1 (stereo not drawn) | 52.9 | > 100 | > 100 µM | > 100 µM | – | > 100 µM | – | > 100 µM | > 100 µM | > 100 | – | – | – | – | – | – | – | – | –
15 | COC(=O)N1C=CC2=C(C)C3Nc4ccccc4C3C(C)=C2C1 (stereo not drawn) | 37.2 | 2.16 | 7.24 µM | 8.29 µM | > 100 | 3.88 µM | – | > 100 µM | 7.5 µM | 6.89 | – | – | – | – | – | – | – | – | –
16 | CC1Nc2ccccc2NC1C=C(C#N)C#N (stereo not drawn) | 32.4 | 29.6 | 34.2 µM | 25.7 µM | 33.4 | 28.3 µM | – | 30.3 µM | 23.1 µM | 32.6 | – | – | – | – | – | – | – | – | –
